Experimental data from ChEMBL document CHEMBL1143229, “PB183, a sigma receptor ligand, as a potential PET probe for the imaging of prostate adenocarcinoma” (Bioorg Med Chem Lett, 2008).
pEC50, pKi: −log10 of the molar value.

Experiments:
[1] = Antiproliferative activity against mouse TRAMP cells; type: functional, cell-based
[2] = Displacement of [3H]DTG from mouse sigma-2 receptor in TRAMP cell membrane; type: cell membranes
[3] = Cytotoxicity against mouse TRAMP cells; type: functional, cell-based
[4] = Apparent permeability from apical to basolateral side of human Caco-2 cell membrane at pH 7.4 after 21 days; type: ADME, cell-based; settings: Caco-2, pH 7.4
[5] = target: Sigma non-opioid intracellular receptor 1 (Mus musculus, UniProt O55242); test: Displacement of (+)-[3H]pentazocine from mouse sigma 1 receptor in TRAMP cell membrane; type: cell membranes
[6] = Selectivity for sigma 2 receptor over sigma 1 receptor

Sequence of Sigma non-opioid intracellular receptor 1 (O55242 whole entry): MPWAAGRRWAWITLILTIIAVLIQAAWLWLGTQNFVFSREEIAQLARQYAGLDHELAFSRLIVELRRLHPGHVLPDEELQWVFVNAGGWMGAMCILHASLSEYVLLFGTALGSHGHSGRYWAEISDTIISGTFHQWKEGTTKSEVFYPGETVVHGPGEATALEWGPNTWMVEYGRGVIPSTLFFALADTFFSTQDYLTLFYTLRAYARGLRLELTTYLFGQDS

Papp A→B [4] [×10⁻⁶ cm/s]	pKi [5]	Selectivity ratio [6]	SMILES	pEC50 [1]	pKi [2]	pEC50 [3]
6.3	8.19		COc1cccc2c(CCCN3CCN(C4CCCCC4)CC3)cccc12	4.77	9.30	4.58
		40	COc1cccc2c1CCCC2CCCN1CCN(C2CCCCC2)CC1 (stereo unspecified)			
